This note sets out measurements from patent publication US20220402867A1, “SULFO-SUBSTITUTED BIARYL COMPOUND OR SALT THEREOF, PREPARATION METHOD THEREFOR, AND USE THEREOF” (Shanghai Litedd Co., Ltd., priority 2019, published 2022).

The EC50 is the concentration that produces a half-maximal response. What is called Emax is the size of the effect at its maximum, as opposed to the concentration needed. The half-life is the time in which the quantity being followed falls by half. One may read the microsomal CLint as the rate of metabolic loss divided by the concentration.

The target in one data set is T1, GST-RORγ LBD (263-509) (Homo sapiens, UniProt P51449).
T1 construct: GST-RORγ LBD ((263-509) (produced at ChemPartner))
T1 sequence (P51449 263-509): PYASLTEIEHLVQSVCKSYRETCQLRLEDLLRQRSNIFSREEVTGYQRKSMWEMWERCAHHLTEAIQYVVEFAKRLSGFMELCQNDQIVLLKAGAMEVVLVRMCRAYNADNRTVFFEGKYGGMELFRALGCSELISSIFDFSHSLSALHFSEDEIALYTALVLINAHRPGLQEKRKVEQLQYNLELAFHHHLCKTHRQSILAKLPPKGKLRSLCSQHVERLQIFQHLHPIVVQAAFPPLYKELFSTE
Put plainly: TR-FRET assay of agonistic activity on RORγ receptor. Format: biochemical. The settings on record: for EC50: TR-FRET, GST-RORγ LBD with Biotin-SRC1; for Emax: maximum activation rate, TOP of fitted curve. The method, then: A time-resolved fluorescence resonance energy transfer (TR-FRET) assay was used for the compounds of the present disclosure, to determine the agonistic activity of the compounds on the RORγ protein receptor. The agonistic activity is expressed by the concentration for 50% of maximal effect (EC50). The experiment was performed basically with reference to the methods described in ONCOIMMUNOLOGY, 2016, VOL. 5, NO. 12, e1254854.
1. Preparation of RORγ Basal Buffer
A 100 mL basal buffer was prepared, mixed homogeneously and stored for use;
The compounds of the examples shown in the table below were prepared into solutions with DMSO as the solvent, serially diluted at 3-fold dilution to 10 concentrations starting from 10 mM, and added to the corresponding wells of a 384-well plate with each concentration of each compound in duplicate;
a. A 75 nM solution of GST-RORγ LBD ((263-509) (produced at ChemPartner)) and a 4 nM solution of Biotin-SRC1 (Glsbiochem) were prepared with the above basal buffer. The two solutions were 1:1 mixed evenly, and 10 μL of the mixed solution was added into each well of the above 384-well plate. The plate was immediately centrifugated at 1000 rpm for 10 seconds; b. A 1 nM solution of Anti-GST Eu (Cisbio, #61GSTKLA) and a 50 nM solution of SA-APC (Cisbio, […]) were prepared with the above basal buffer. The two solutions were 1:1 mixed evenly, and 10 μL of the mixed solution was added into each well of the above 384-well plate. The plate was immediately centrifugated at 1000 rpm for 10 seconds; c. The resulting 384-well plate was incubated at room temperature for 15 minutes. Data were read on an Envision microplate reader, EC50 values and E max % were calculated.
a. Readings were taken at 665 nm and 615 nm wavelengths respectively on the Envision Microplate Reader, and the ratios between them were normalized. b. Calculation was carried out with the following equation: […]
wherein X is the reading of compounds, Min is the reading of the blank solution, and Max is the reading of 10 μM SRC. c. The concentration-response curve data were fitted by a four-parameter logistic nonlinear regression model, and Emax was the TOP value of the fitted curve.
A general note: In TR-FRET formats the signal depends on donor and acceptor labels being close together.

Data set [1] has as its target T2, RORγt (RORγ-LBD chimeric receptor) (Homo sapiens, UniProt P51449).
T2 construct: host or cells: HEK293T
T2 sequence (P51449 269-508 limits assumed): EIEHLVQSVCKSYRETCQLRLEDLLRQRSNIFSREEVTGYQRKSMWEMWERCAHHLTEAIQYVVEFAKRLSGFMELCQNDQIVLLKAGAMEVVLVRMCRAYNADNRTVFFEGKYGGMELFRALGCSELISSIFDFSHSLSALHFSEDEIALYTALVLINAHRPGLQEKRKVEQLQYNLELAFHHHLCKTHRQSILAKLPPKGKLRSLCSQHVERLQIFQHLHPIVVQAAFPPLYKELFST
Put plainly: Luciferase reporter gene assay of RORγt agonistic activity in HEK293T cells. The class given is cell-based. The arrangement: Emax: dose or concentration left out as unconfirmed. The settings on record: for Emax: HEK-293T. The source says: This assay was basically carried out according to the method described in the literature ONCOIMMUNOLOGY, 2016, VOL. 5, NO. 12, e1254854.
The RORγ-LBD coding sequence was inserted into pBIND plasmid (Promega, E1581). This expression vector and a reporter vector (pGL4.35 carrying a stably integrated luciferase reporter gene driven by GAL4 promoter) were co-expressed in HEK293T host cells. When the agonist binds to the corresponding chimeric receptor, the chimeric receptor binds to the GAL4 binding site on the reporter gene carrier and stimulates reporter gene expression. The agonistic activity of the compound on RORγ was determined according to the intensity of the chemiluminescence signal.
1.1 All test compounds were serially diluted at 3-fold dilution with DMSO, with 10 serial dilutions starting from 10 mM; LIT-00093 solution was prepared similarly. […] 1.4 The compound plate was sealed and shaken for 5 min.
Cells were cultured according to ATCC standard operation, and 6*10^6 HEK293T cells were seeded into 100 mm cell culture dishes, cultured overnight in a 37° C., 5% CO2 incubator, and then transfected. Compounds of corresponding concentrations were added for treatment, and the Steady-Glo™ kit (Lot E 2520) was used for further detection.
Chemiluminescence values were detected with Envision 2104; EC50 values were calculated.
% Activity was calculated with the following equation: […]
RLU: […] R L Upositive: average value of positive control R L Uvehicle: average value of negative control
The log values of the compound concentration and % Activity were fitted using Graphad 8.0, to calculate EC50s of the compounds.
In general terms: Reporter assays use an easily measured gene product as a stand-in for the process of interest.

Data set [2] is described as follows: Metabolic stability in human liver microsomes. The following applies: for microsomal CLint: 0.5 mg protein/mL. Format: in vitro ADME. From the text: (§1) According to standard methods of in vitro metabolic stability studies in the art, eg., the methods described in Kerns, Edward H. and Di Li (2008). Drug-like Properties: Concepts, Structure Design and Methods: from ADME to Toxicity Optimization. San Diego: Academic Press; Di, Li et al., Optimization of a Higher Throughput Microsomal Stability Screening Assay for Profiling Drug Discovery Candidates, J. Biomol. Screen. 2003, The method described in 8(4), 453, the liver microsomal metabolic stability test of the compounds of the present disclosure was carried out analogously as follows.
(§2) The incubation system contained 0.5 mg protein/mL microsomes, cofactors, and PBS, was pre-incubated at 37° C. for 3 min, and then added the substrate (i.e., the test compounds) to initiate the reaction. Samples were taken at 0, 1, 5, 10, 15, 20, 30 and 60 min from the start of the reaction, and an appropriate terminator was added to terminate the reaction.
(§3) The terminator was an ice acetonitrile solution containing 100 ng/mL tolbutamide and 100 ng/mL labetalol.
(§4) Sample treatment (n=3): each appropriate sample was added, vortexed and centrifuged at high speed. The supernatants were collected, and the substrate was detected by HPLC-MS/MS. The peak area at the 0 min was taken as 100%. The peak areas at other time points were converted to percentage of the remaining amount. The natural logarithms of the percentage of remaining amount at each time point was plotted against the incubation time, and the slope (−k) was calculated by linear regression. Then, Clint (uL/min/mg) and half-life (T½, min) of the compounds were calculated following the equation of the inherent clearance rate (Clint)=(k* volume of incubation solution)/mass of liver microsomes.

Data set [3] in a line: Metabolic stability in mouse liver microsomes. The following applies: for half-life: CD-1; for microsomal CLint: CD-1, 0.5 mg protein/mL. Format: in vitro ADME, CD-1 mice.
Description: as §1, §2, §3, §4
A general note: Liver microsomes are a subcellular fraction often used to study metabolism.

In the next data set the test system is human PBMC (Th17 cells). Put plainly: Th17 differentiation and IL-17 secretion in human PBMC. The class given is cell-based. The following applies: IL-17 ELISA after 48 hours; for Emax: maximum activation rate. The method, then:
Test procedure: PBMC cells were first thawed and plated, and then stimulated with stimulating factors (anti-hCD28: 5 μg/mL; rhTGF-β1: 5 ng/mL; rhIL-6: 20 ng/mL; rhIL-23: 10 ng/Ml) to differentiate to Th17, while adding different concentrations of compounds. All test compounds were serially diluted at 3-fold dilution with DMSO, with 8 serial dilutions starting from the maximum concentration 3 μM. The supermatants were collected after 48 hours for IL-17 ELISA detection, and compared with the solvent group, to determine the activation rate of the compounds on Th17 cells to secrete IL-17. EC50 values were fitted with Graphad8.0, and the TOP values fitted by the software was Emax %.

Setting [4] is: HEK293T, GAL4 luciferase reporter, read-out: EC50.

Where two headings read alike, the source gives them in different places. Bounds are passed on as bounds.

On GST-RORγ LBD (263-509), `CCS(=O)(=O)c1ccc(CC(=O)Nc2cc(Cl)c(-c3ccc(S(=O)(=O)CC)cc3)c(Cl)c2)cc1` [Example 1, N-(2,6-Dichloro-4′-(ethylsulfonyl)-[1,1′-biphenyl]-4-yl)-2-(4-(ethylsulfonyl)phenyl)acetamide] came in with a concentration giving a half-maximal response (EC50) of 14.5 nM and a maximum response (Emax) of 213%. Besides, the EC50 in data set [1] (setting [4]) turned out to be 47 nM. This compound showed an Emax in data set [1] of 87.1%. For the same compound, in data set [2], the half-life amounted to 41.8 min, the microsomal CLint was 33.1 µL/min/mg and the “% Remaining (T = 60 min)” value was found to be 32.4%. In data set [3], the “% Remaining (T = 60 min)” value amounted to 11.70%, the half-life turned out to be 20.5 min and the intrinsic metabolic clearance (microsomal CLint) worked out at 67.6 µL/min/mg.
Turning to `CS(=O)(=O)c1ccc(CC(=O)Nc2cc(Cl)c(-c3ccc(S(C)(=O)=O)cc3)c(Cl)c2)cc1` [Example 7, N-(2,6-Dichloro-4′-(methylsulfonyl)-[1,1′-biphenyl]-4-yl)-2-(4-(methylsulfonyl)phenyl)acetamide], on GST-RORγ LBD (263-509), a half-maximal effect (EC50) was put at 10 nM and the Emax came to 169%. Moreover, the EC50 in data set [1] (setting [4]) came to 41 nM. The same compound yielded an Emax in data set [1] of 39.4%. Further, in data set [2], the half-life was above 145 min, the microsomal CLint is below 9.6 µL/min/mg and the “% Remaining (T = 60 min)” value is 80.1%. In data set [3], the “% Remaining (T = 60 min)” value was 88.20%, the half-life was above 145 min and the intrinsic metabolic clearance (microsomal CLint) was below 9.6 µL/min/mg.
For `CS(=O)(=O)c1ccc(-c2c(Cl)cc(NC(=O)Cc3ccc(S(C)(=O)=O)cn3)cc2Cl)cc1` [Example 10, N-(2,6-Dichloro-4′-(methylsulfonyl)-[1,1′-biphenyl]-4-yl)-2-(5-(methylsulfonyl)pyridin-2-yl)acetamide], on GST-RORγ LBD (263-509), the half-maximal effective concentration (EC50) was determined as 114 nM and the Emax was 159%. The EC50 in data set [1] (setting [4]) was determined as 1460 nM. Also, in data set [1], the Emax was found to be 59%. Also, in data set [2], the half-life was above 145 min, the microsomal CLint was below 9.6 µL/min/mg and the “% Remaining (T = 60 min)” value was 92.5%. For the same compound, in data set [3], the “% Remaining (T = 60 min)” value turned out to be 89.90%, the half-life is above 145 min and the microsomal CLint was below 9.6 µL/min/mg.
In the case of `CCS(=O)(=O)c1ccc(-c2c(Cl)cc(NCC(C(=O)O)c3ccc(S(=O)(=O)CC)cc3)cc2Cl)cc1` (stereo not shown) [Example 12-1, 3-(2,6-Dichloro-4′-(ethylsulfonyl)-[1,1′-biphenyl]-4-amino)-2-(4-(ethylsulfonyl)phenyl)propionic acid], at GST-RORγ LBD (263-509), the response was half-maximal at 6.8 nM (EC50) and the Emax is 186%. Further, in data set [1] (setting [4]), the EC50 was above 3000 nM. Moreover, in data set [2], the half-life was above 145 min, the microsomal CLint is below 9.6 µL/min/mg and the “% Remaining (T = 60 min)” value was found to be 107.4%. Besides, in data set [3], the “% Remaining (T = 60 min)” value amounted to 71% and the half-life turned out to be 127 min.
Regarding `CS(=O)(=O)c1ccc(-c2c(Cl)cc(NC(=O)Cc3ccc(S(=O)(=O)CC4CC4)cc3)cc2Cl)cc1` [Example 17, 2-(4-((Cyclopropylmethyl)sulfonyl)phenyl)-N-(2,6-dichloro-4′-(methylsulfonyl)-[1,1′-biphenyl]-4-yl)acetamide], in data set [1], a half-maximal effect (EC50) was put at 25 nM and the Emax was determined as 33.9%. Moreover, in the data set with human PBMC (Th17 cells), the concentration giving a half-maximal response (EC50) was determined as 113 nM and the Emax was found to be 295%. Besides, in data set [2], the half-life was found to be 3.3 min, the intrinsic metabolic clearance (microsomal CLint) worked out at 415 µL/min/mg and the “% Remaining (T = 60 min)” value is 0%. Moreover, in data set [3], the “% Remaining (T = 60 min)” value came out at 15.30%, the half-life was 22.6 min and the microsomal CLint stood at 61.2 µL/min/mg.
For the compound `COCC(C(=O)Nc1cc(Cl)c(-c2ccc(S(C)(=O)=O)cc2)c(Cl)c1)c1ccc(S(=O)(=O)CC2CC2)cc1` (stereo not shown) [Example 18, 2-(4-((Cyclopropylmethyl)sulfonyl)phenyl)-N-(2,6-dichloro-4′-(methylsulfonyl)-[1,1′-biphenyl]-4-yl)-3-methoxypropionamide], the figures for the concentration for a half-maximal effect (EC50) (in data set [1] (setting [4]); in the data set on human PBMC (Th17 cells)) were 784 nM and 29.4 nM, respectively. The Emax in data set [1] worked out at 137%; in the data set on human PBMC (Th17 cells), 193%. Moreover, the half-life in data set [2] worked out at 11.5 min; in data set [3] it was 24.1 min. Moreover, the intrinsic metabolic clearance (microsomal CLint) in data set [2] is 121 µL/min/mg; in data set [3] it was 57.6 µL/min/mg. Besides, the “% Remaining (T = 60 min)” value in data set [2] stood at 2%; in data set [3] it was 15.10%.
